Test results: patent publication US20080269343A1, “GALENIC FORMULATIONS OF ORGANIC COMPOUNDS” (priority 2004, published 2008)
Read-outs that look alike come from different tables or passages of the source.

Assays:
Format in all cases: in vivo, human
[1] = Single-dose 300 mg pharmacokinetic study in healthy and type 2 diabetic subjects (Example 4); settings: single oral dose 300 mg; for AUC(0-t): read-out: AUC0-96
Protocol: An open label, non-randomized, single center, and parallel group single dose study in healthy and type 2 diabetic subjects was carried out. Two parallel groups, one group of 30 healthy, and one group of 30 type 2 diabetic patients, (age, weight and race matched) were enrolled, and all subjects completed the study in each group. Each subject participated in a 21-day screening period, a baseline period (Day −1), one day treatment period (Day 1) and a study completion evaluation 96 hours after the treatment.
Once eligibility had been confirmed each subject received a single oral dose of 300 mg of aliskiren (dosage form 3) on Day 1 with 96 hour sampling of pharmacokinetic (PK) parameters. Subjects were admitted to the study site at least 12 hours prior to the dosing and were confined to the clinic for at least 48 hours post-dose and were advised to come back for the rest of the PK samples collection. Subjects were to undergo a study completion evaluation on 96 hours post-dose prior to discharge from the study site.
Type 2 diabetic patients had been diagnosed with type 2 diabetes at least 1 year prior to screening, and were otherwise in good health. Healthy subjects were selected to match type 2 diabetes patients with regard to age (±5 yr) and weight (±10 kg).
Blood samples were collected to determine the pharmacokinetics following a single oral dose of 300 mg of aliskiren. Plasma concentrations of aliskiren were used to determine the pharmacokinetic parameters using non-compartmental methods, and the data are summarized in FIG. 4, and Tables 2 and 3.

[2] = Steady-state pharmacokinetics of aliskiren 300 mg alone, digoxin interaction study, Day 7 (Example 8); settings: 300 mg daily, Day 7, healthy volunteers N 21; for AUC / Cmax / Tmax: human, in vivo, oral, 300 mg
Protocol: The study employed was an open-label, two-period, multiple-dose design to evaluate the pharmacokinetic drug-drug interaction between digoxin and aliskiren when given alone or in combination to healthy volunteers. A total of 22 healthy volunteers were enrolled into the study. The subjects were admitted to the study center at least 24 hours prior to the initial dosing of aliskiren for baseline evaluation. If subjects met all eligibility criteria at baseline, they were randomized into the study and confined to the clinic on days 1-7 and days 17-33. All study medications were taken under fasted condition. The study was completed with the end of study evaluations on Day 34, after the last blood sample was collected.
In period 1 (Days 1-7), subjects received a single 300 mg daily dose of aliskiren for 7 days. Period 1 was followed by a ten (10) day washout period. In period 2, subjects received a single 0.25 mg daily dose of digoxin for 9 days (Days 18-26) and aliskiren 300 mg once a day with a single 0.25 mg daily dose of digoxin co-administered for 7 days (Days 27-33).
Pharmacokinetic blood sampling for aliskiren alone occurred on Day 7 up to 24 hours post dose (5-mL blood samples were collected into lithium heparin tubes on Day 7 of the study at pre-dose, 0.5, 1, 2, 3, 4, 6, 8, 12, 16 and 24 hours after dosing).

[3] = Steady-state pharmacokinetics of aliskiren 300 mg alone, furosemide interaction study, Day 13 (Example 6); settings: 300 mg daily, Day 13, healthy volunteers N 21; for AUC / Cmax / Tmax: both sexes, human, in vivo, oral, 300 mg
Protocol: An open-label, 2-period study in healthy subjects was carried out to evaluate the pharmacokinetic drug-drug interaction between furosemide and aliskiren when given alone or in combination. A total of 22 healthy male and female volunteers enrolled and 21 completed all study procedures and treatments. The subjects were admitted to the study center for at least 12 hours prior to the initial dosing for baseline evaluation, and confined to the clinic for entire study. Subjects were given an end-of-study evaluation on Day 17 approximately 24 h after the last treatment of aliskiren. For all treatment periods, subjects fasted for a minimum of 10 hours pre-dose to 4 hours post-dose. Subjects were considered to have completed the study when all safety and pharmacokinetic evaluations had been completed.
In Period 1 (Study Days 1-3), subjects received a single 20 mg daily dose of furosemide. In Period 2 (Study Days 7-16), subjects received 300 mg of aliskiren once a day for a total of 10 days with a single 20 mg daily dose of furosemide co-administered for three days (Study Days 14-16), starting Day 14 of the study. There was a three day wash out between Period 1 and 2 (Study Days 4-6).
Pharmacokinetic blood sampling for aliskiren alone occurred on Study Day 13 up to 24 hours post-dose (5-mL blood samples were collected into lithium heparin tubes on Day 13 of the study at pre-dose, 0.5, 1, 2, 4, 6, 8, 12, 16 and 24 hours after dosing).

[4] = Max, type 2 diabetic patients n = 30
[5] = Min, type 2 diabetic patients n = 30
[6] = human, plasma, po, 300 mg, Geometric Mean, healthy subjects n = 30
[7] = human, plasma, po, 300 mg, Geometric Mean, type 2 diabetic patients n = 30
[8] = human, plasma, po, 300 mg, Median, healthy subjects n = 30
[9] = human, plasma, po, 300 mg, Median, type 2 diabetic patients n = 30
[10] = human, plasma, po, 300 mg, arithmetic mean, healthy subjects n = 30
[11] = human, plasma, po, 300 mg, arithmetic mean, type 2 diabetic patients n = 30

## COCCCOc1cc(C[C@@H](C[C@H](N)[C@@H](O)C[C@H](C(=O)NCC(C)(C)C(N)=O)C(C)C)C(C)C)ccc1OC [aliskiren, 2(S),4(S),5(S),7(S)—N-(3-amino-2,2-dimethyl-3-oxopropyl)-2,7-di(1-methylethyl)-4-hydroxy-5-amino-8-[4-methoxy-3-(3-methoxy-propoxy)phenyl]-octanamide]
[1]; Max, healthy subjects n = 30
  AUC0-96: 4546 ng·h/mL
  AUC0-∞: 5015 ng·h/mL
  Cmax: 979 ng/mL
  Tmax: 6.00 h
[1]; [4]
  AUC0-96: 5662 ng·h/mL
  AUC0-∞: 6171 ng·h/mL
  Cmax: 1580 ng/mL
[1]; Min, healthy subjects n = 30
  AUC0-96: 425 ng·h/mL
  AUC0-∞: 482 ng·h/mL
  Cmax: 66 ng/mL
  Tmax: 0.25 h
[1]; [5]
  AUC0-96: 431 ng·h/mL
  AUC0-∞: 465 ng·h/mL
  Cmax: 80 ng/mL
  Tmax: 0.25 h
[1]; [6]
  AUC(0-inf): 1500 ng·h/mL
  AUC(0-t): 1380 ng·h/mL
[1]; human, plasma, po, 300 mg, Geometric Mean, healthy subjects n = 30, read-out: Cmax
  Cmax: 283 ng/mL
[1]; human, plasma, po, 300 mg, Geometric Mean, healthy subjects n = 30, read-out: tmax
  Tmax: 1.32 h
[1]; [7]
  AUC(0-inf): 1740 ng·h/mL
  AUC(0-t): 1590 ng·h/mL
[1]; human, plasma, po, 300 mg, Geometric Mean, type 2 diabetic patients n = 30, read-out: Cmax
  Cmax: 322 ng/mL
[1]; human, plasma, po, 300 mg, Geometric Mean, type 2 diabetic patients n = 30, read-out: tmax
  Tmax: 1.22 h
[1]; [8]
  AUC(0-inf): 1340 ng·h/mL
  AUC(0-t): 1260 ng·h/mL
[1]; human, plasma, po, 300 mg, Median, healthy subjects n = 30, read-out: Cmax
  Cmax: 278 ng/mL
[1]; human, plasma, po, 300 mg, Median, healthy subjects n = 30, read-out: tmax
  Tmax: 1.25 h
[1]; [9]
  AUC(0-inf): 1900 ng·h/mL
  AUC(0-t): 1610 ng·h/mL
[1]; human, plasma, po, 300 mg, Median, type 2 diabetic patients n = 30, read-out: Cmax
  Cmax: 328 ng/mL
[1]; human, plasma, po, 300 mg, Median, type 2 diabetic patients n = 30, read-out: tmax
  Tmax: 1 h
[1]; [10]
  AUC(0-inf): 1780 ng·h/mL
  AUC(0-t): 1640 ng·h/mL
[1]; human, plasma, po, 300 mg, arithmetic mean, healthy subjects n = 30, read-out: Cmax
  Cmax: 348 ng/mL
[1]; human, plasma, po, 300 mg, arithmetic mean, healthy subjects n = 30, read-out: tmax
  Tmax: 1.97 h
[1]; [11]
  AUC(0-inf): 2040 ng·h/mL
  AUC(0-t): 1860 ng·h/mL
[1]; human, plasma, po, 300 mg, arithmetic mean, type 2 diabetic patients n = 30, read-out: Cmax
  Cmax: 394 ng/mL
[1]; human, plasma, po, 300 mg, arithmetic mean, type 2 diabetic patients n = 30, read-out: tmax
  Tmax: 1.62 h
[2]; Geometric Mean
  Cmin^SS: 25.4 ng/mL
  AUC: 1600 ng·h/mL
  Cmax: 246 ng/mL
  Tmax: 1.39 h
[2]; Max
  AUCτ: 2710 ng·h/mL
  Cmax^SS: 478 ng/mL
  Cmin^SS: 41.5 ng/mL
  tmax^SS: 6.00 h
[2]; Median
  Cmin^SS: 24.1 ng/mL
  AUC: 1560 ng·h/mL
  Cmax: 234 ng/mL
  Tmax: 1 h
[2]; Min
  AUCτ: 943 ng·h/mL
  Cmax^SS: 131 ng/mL
  Cmin^SS: 13.1 ng/mL
  tmax^SS: 0.50 h
[2]; arithmetic mean
  Cmin^SS: 26.5 ng/mL
  AUC: 1670 ng·h/mL
  Cmax: 261 ng/mL
  Tmax: 1.93 h
[3]; Max
  AUCτ: 3973 ng·h/mL
  Cmax^SS: 652 ng/mL
  Cmin^SS: 52.30 ng/mL
  tmax^SS: 6.0 h
[3]; Median
  Cmin^SS: 24.40 ng/mL
  AUC: 1810 ng·h/mL
  Cmax: 284 ng/mL
  Tmax: 1 h
[3]; Min
  AUCτ: 471 ng·h/mL
  Cmax^SS: 116 ng/mL
  Cmin^SS: 6.26 ng/mL
  tmax^SS: 0.5 h
[3]; arithmetic mean
  Cmin^SS: 25.80 ng/mL
  AUC: 1890 ng·h/mL
  Cmax: 334 ng/mL
  Tmax: 1.5 h
